The values that follow are results of earlier work, collected in patent US20140343147A1, “NUTRITIONAL SUPPLEMENT FOR THE ENHANCEMENT OF MUSCLE PERFORMANCE AND RECOVERY AND METHODS OF USE THEREOF” (Maximum Human Performance, LLC, priority 2011, published 2014).

Molecules are shown by their SMILES.

In one series the test system is rats. The note with it: daily dose.
A further series deals with humans. The note with it: daily dose.
For a further series, the system named is mice. To be noted: iv. in mice, Na-salt.
The conditions of series [1]: colorless crystals; water and alcohol.

Consider `N[C@H](CC(=O)O)C(=O)O` [D-aspartic acid], for which, in the series with rats, the luteinizing hormone levels entry is given as “increase” and the testosterone levels entry is given as “increase”. In the series on humans, the luteinizing hormone levels entry is “increase” and the testosterone levels entry is recorded as “increase”.
With `CC(C)CC(O)C(=O)O` (stereo not drawn) [HICA, 2-hydroxy-4-methylvaleric acid], the median lethal dose (LD50) (usually the dose expected to kill half of the subjects tested) in the series with mice is 650 mg/kg. Moreover, the solubility result in series [1] was “soluble in water and alcohol”.
